Test results published in US20050020576A1, “Kappa agonist compounds and pharmaceutical formulations thereof” (priority 1996, published 2005).
“And” between values parts separate entries of the source, which are not always exact repeats. Identical values can stand only once. Counter-ions that a name gives are not always drawn. Like-named read-outs stand apart in the source and are kept apart here.

How the values were obtained:
[1] = target: cloned human kappa receptor (Homo sapiens, UniProt P41145); test: biochemical; type: binding
[2] = test system: formalin-induced flinching; test: animal or person; type: in vivo, male Sprague-Dawley rats

cloned human kappa receptor, sequence (P41145 whole entry): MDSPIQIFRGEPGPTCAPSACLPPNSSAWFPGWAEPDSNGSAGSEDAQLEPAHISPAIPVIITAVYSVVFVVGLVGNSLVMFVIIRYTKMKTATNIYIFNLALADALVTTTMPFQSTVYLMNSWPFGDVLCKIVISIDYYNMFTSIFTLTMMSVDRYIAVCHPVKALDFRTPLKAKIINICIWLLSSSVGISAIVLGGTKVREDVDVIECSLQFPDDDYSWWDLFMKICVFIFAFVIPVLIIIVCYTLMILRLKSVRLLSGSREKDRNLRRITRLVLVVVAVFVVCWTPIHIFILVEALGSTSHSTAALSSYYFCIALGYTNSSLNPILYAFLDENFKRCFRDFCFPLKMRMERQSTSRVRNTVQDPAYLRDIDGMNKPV

SMILES	melting point	further results
CS(=O)(=O)N1CCN(C(=O)Cc2ccc(C(F)(F)F)cc2)C(CN2CC[C@H](O)C2)C1 (stereo partly drawn) [Example 1nn, 4-Methylsulphonyl-1-[(4-α,α,α-triflouromethylphenyl)acetyl]-2-(R,S)-[(3-(S)-hydroxy-1-pyrrolidinyl)methyl]piperazine hydrochloride]	–	Ki ([1]; Ki, nM 3H-Diprenorphin): 2.33 nM; Formalin A50 mg/kg s.c. ([2]; rat, in vivo, sc): 7.1 mg/kg
CC(=O)N1CCN(C(=O)Cc2ccc(C(F)(F)F)cc2)C(CN2CCCC2)C1 (racemic) [(R,S-10b), hydrochloride]	–	Ki ([1]; Ki, nM 3H-Diprenorphin): 26 nM and 24 nM; Late Phase Formalin, % @ 300; i.paw ([2]; rat, in vivo): 89% @ 300
COc1cc(CC(=O)N(C)[C@H](CN2CCCC2)c2ccccc2)c(S(=O)(=O)N2CCCC2)c(OC)c1OC [Example 143, 2-[2-(N-Pyrrolidinesulfamoyl)-3,4,5-trimethoxyphenyl]-N-methyl-N-[(1S)-1-phenyl-2-[(1-pyrrolidinyl)ethyl]]acetamide]	–	Ki ([1]; read-out: Ki(nM) [3H]-Diprenorphin κ): 2.1 nM; Late Phase Formalin (i. paw), % @ 300 ([2]; rat, in vivo): 98% @ 300
COC(=O)N1CCN(C(=O)Cc2ccc(Cl)c(Cl)c2)C(CN2CC[C@H](OC(=O)Cc3ccc(Cl)c(Cl)c3)C2)C1 (mixture of isomers) [Example 1q, Methyl-4-[(3,4-dichlorophenyl)acetyl]-2-(R,S)-[3-(S)-(3′,4′-dichlorophenyl acetate)-1-(pyrrolidinyl)methyl]-1-piperazinecarboxylate hydrochloride]	–	Ki ([1]; Ki, nM 3H-Diprenorphin): 5.2 nM; inhibition in vivo at 0.3 µM ([2]; Rattus norvegicus, read-out: Formalin (% A @ 300 nM) i. paw): 98%
CN(C(=O)Cc1ccc(Cl)c(Cl)c1)[C@H]1c2cc(NC(=O)/C=C\C(=O)O)ccc2CC[C@@H]1N1CCCC1 [II-24]	–	Ki ([1]; Ki (nM) [3H] Diprenorphin κ): 28 nM; Late Phase Formalin, % @ 300 μg ([2]; rat, in vivo): 69% @ 300 μg
CN(C(=O)Cc1ccccc1NS(C)(=O)=O)[C@H](CN1CC[C@H](O)C1)c1ccccc1 [Example 125, 2-(2-N-Methylsulfonamido-2-aminophenyl)-N-methyl-N-[(1S)-1-phenyl-2-[1-(3S)-(3-hydroxypyrrolidinyl)ethyl]]acetamide]	–	Ki ([1]; Ki (nM) [3H]-Diprenorphin κ): 5.3 nM; Late Phase Formalin (i. paw), % @ 300 ([2]; rat, in vivo): 81% @ 300
CN(C(=O)Cc1cc2c(cc1S(=O)(=O)N(C)C)OCO2)[C@H](CN1CCCC1)c1ccccc1 [Example 132, 2-[2-(N-Dimethylsulfamoyl)-4,5-methylenedioxyphenyl]-N-methyl-N-[(1S)-1-phenyl-2-[(1-pyrrolidinyl)ethyl]]acetamide]	–	Ki ([1]; Ki (nM) [3H]-Diprenorphin κ): 0.25 nM; Late Phase Formalin (i. paw), % @ 300 ([2]; rat, in vivo): 100% @ 300
CN(C(=O)Cc1ccc(OCc2ccccc2)c(NS(C)(=O)=O)c1)[C@H](CN1CCCC1)c1ccccc1 [Example 123, 2-(3-N-Methylsulfonamido-3-amino-4-benzyloxyphenyl)-N-methyl-N-[(1S)-1-phenyl-2-(1-pyrrolidinyl)ethyl]acetamide]	–	Ki ([1]; Ki (nM) [3H]-Diprenorphin κ): 23.6 nM; Late Phase Formalin (i. paw), % @ 300 ([2]; rat, in vivo): 87% @ 300
CN(C(=O)C(c1ccccc1)c1ccccc1)[C@H](CN1CC[C@H](O)C1)c1ccccc1 [III-43, reference compound]	–	Late Phase Formalin A50, mg/ms (i-paw) ([2]; rat, in vivo): 59 mg/ms (i-paw) 28 mg/kg (sc); Late Phase Formalin A50, mg/kg (sc) ([2]; rat, in vivo, sc): 59 mg/ms (i-paw) 28 mg/kg (sc)
CNS(=O)(=O)c1cccc(CC(=O)N(C)[C@H](CN2CCCC2)c2ccccc2)c1.Cl [Example 3q, 3-(N-Methylsulfamoyl)-phenyl-N-methyl-N-[(1S)-1-phenyl-2-(1-pyrrolidinyl)ethyl]acetamide hydrochloride]	> 250 °C (dec.)	Ki ([1]; Ki (nM) [3H]-Diprenorphin κ): 3.2 nM
COC(=O)N1CCN(C(=O)Cc2ccc(S(C)(=O)=O)cc2)C(CN2CCCC2)C1 (racemic) (as salt: hydrochloride) [(R,S-9a), (R,S)-Methyl 4-[(4-methylsulfonylphenyl)acetyl]-3-[(1-pyrrolidinyl)-methyl]-1-piperazinecarboxylate hydrochloride]	225 °C	–
COc1cc(CC(=O)N(C)[C@H](CN2CCCC2)c2ccccc2)c(S(=O)(=O)N(C)C)cc1OC (as salt: HCl) [Example 136, 2-[2-(N-Dimethylsulfamoyl)-4,5-dimethoxyphenyl]-N-methyl-N-[(1S)-1-phenyl-2-[(1-pyrrolidinyl)ethyl]]acetamide]	246 to 248 °C	–
O=C(Cc1ccc(Cl)c(Cl)c1)N1CCN(C(=O)C(F)(F)F)C[C@H]1CN1CCCC1 (as salt: hydrochloride) [(R-3h), (R)-4-Trifluoroacetyl-1-(3,4-dichlorophenyl)acetyl]-2-[(1-pyrrolidinyl)methyl]-piperazine hydrochloride]	145 to 147 °C	–
CN(C(=O)Cc1ccc(Cl)c(Cl)c1)[C@@H]1c2cc(N(CC(=O)O)CC(=O)O)ccc2CC[C@H]1N1CCCC1 (relative stereo) (as salt: HCl)	160 °C (dec.)	–
COC(=O)CNC(=O)c1ccccc1CC(=O)N(C)[C@H](CN1CCCC1)c1ccccc1 (as salt: hydrochloride) [Example 3mm, Methyl N-[2-(2-pheny)-N-methyl-N-{[1S]-1-phenyl-2-(1-pyrrolidinyl)ethyl}acetamido]2-oxo-glycinate hydrochloride]	204 to 206 °C	–
COc1cc(CC(=O)N(C)[C@H](CN2CC[C@H](O)C2)c2ccccc2)c(S(=O)(=O)N2CCCC2)cc1OC (as salt: salt) [Example 135, 2-[2-(N-Pyrrolidinesulfamoyl)-4,5-dimethoxyphenyl]-N-methyl-N-[(1S)-1-phenyl-2-[1-(3S)-(3-hydroxypyrrolidinyl)ethyl]]acetamide]	> 120 °C (dec.)	–

SMILES	melting point	further results
CN(C(=O)Cc1ccc(C(F)(F)F)cc1NCC(=O)O)[C@H](CN1CCCC1)c1ccccc1 (as salt: hydrochloride) [Example 3b, N-[(4-Trifluoromethylphenyl)-N-methyl-N-{[1S]-1-phenyl-2-[1-pyrrolidinyl)]ethyl}acetamido]glycine hydrochloride]	228 to 230 °C (dec.)	–
COC(=O)N1CCN(C(=O)Cc2ccc(C(F)(F)F)cc2NCC(=O)O)C(CN2CCCC2)C1 (racemic) [Example 1a, Methyl-4-[-2-glycyl-4-(trifluoromethylphenyl)acetyl]-3-(R,S)-[(1-pyrrolidinyl)-methyl]-1-piperazinecarboxylate]	165 to 170 °C	Ki ([1]; Table IA, read-out: Ki(nM) (3H)-Diprenorphin): 248 nM
CC(=O)N1CCN(C(=O)Cc2ccccc2[N+](=O)[O-])C(CN2CCCC2)C1 (racemic) (as salt: hydrochloride) [(R,S-10e), (R,S)-4-Acetyl-1-[(2-nitrophenyl)acetyl]-3-[(1-pyrrolidinyl)-methyl]piperazine-carboxylate hydrochloride]	180 °C (dec.)	–
COC(=O)N1CCN(C(=O)Cc2ccc(C(F)(F)F)cc2N(S(C)(=O)=O)S(C)(=O)=O)C(CN2CCCC2)C1 (racemic) (as salt: hydrochloride) [Example 1b, Methyl-4-[(2-[N,N-bis-methylsulfonamido]-4-trifluoromethyphenyl)acetyl]-3-(R,S)-[(1-pyrrolidinyl)-methyl]-1-piperazinecarboxylate dihydrochloride]	155 to 160 °C	–
CNS(=O)(=O)c1cccc(CC(=O)N(C)[C@@H]2CCCC[C@H]2N2CCCC2)c1OC.Cl (racemic)	168 to 170 °C	–
CN(C(=O)Cc1ccc(OCc2ccccc2)c(NS(C)(=O)=O)c1)[C@H](CN1CCCC1)c1ccccc1 (as salt: HCl) [Example 123, 2-(3-N-Methylsulfonamido-3-amino-4-benzyloxyphenyl)-N-methyl-N-[(1S)-1-phenyl-2-(1-pyrrolidinyl)ethyl]acetamide]	219 to 221 °C	–
CN(C(=O)Cc1ccc(Cl)c(Cl)c1)[C@@H]1c2cc(S(=O)(=O)N(C)Cc3ccccc3)ccc2CC[C@H]1N1CCCC1 (racemic) (as salt: HCl)	251 to 254 °C	–
COc1cc(CC(=O)N(C)[C@H](CN2CCCC2)c2ccccc2)c(S(=O)(=O)N(C)CC(=O)O)cc1OC (as salt: HCl) [Example 142, N-Methyl-[[2-(N-sulfamoyl)-4,5-dimethoxyphenyl]-N-methyl-N-[(1S)-1-phenyl-2-[1-(pyrrolidinyl)ethyl]]acetamido]glycine]	231 to 233 °C (dec.)	–
CN(C(=O)C(c1ccccc1)c1ccccc1)[C@@H]1c2ccccc2C[C@H]1N1CCCC1 (racemic) (as salt: HCl)	> 300 °C	–
CN(C(=O)Cc1ccc(S(C)(=O)=O)cc1)[C@@H]1CCCC[C@H]1N1CCCC1.Cl (racemic)	152 to 154 °C (dec.)	–
CNS(=O)(=O)c1cc(CC(=O)N(C)[C@@H]2CCCC[C@H]2N2CCCC2)ccc1F.Cl (racemic) [Example 4i, (±)-trans-4-Fluoro-3-methylsulfamoyl-N-methyl-N-[2-(1-pyrrolidinyl)cyclohexyl]phenylacetamide hydrochloride]	265 to 267 °C	[3H]-Diprenorphin, % @ 1 μM [1]: 31% @ 1 μM
CNS(=O)(=O)c1ccccc1CC(=O)N1CCN(C(=O)OC)CC1CN1CCCC1 (racemic) (as salt: hydrochloride) [Example 1e, Methyl-4-[(2-[N-methylamino)sulfamyl]phenyl)acetyl]-3-(R,S)-[(1-pyrrolidinyl)methyl]-1-piperazinecarboxylate hydrochloride]	155 to 160 °C	–
COc1cc(CC(=O)N(C)[C@H](CN2CC[C@H](O)C2)c2ccccc2)c(S(=O)(=O)N2CCN(C)CC2)cc1OC (as salt: HCl) [Example 139]	168 to 171 °C	–
CN(C(=O)Cc1cc(Cl)c(Cl)cc1[N+](=O)[O-])[C@@H]1c2ccccc2C[C@H]1N1CCCC1 (racemic) (as salt: HCl)	284 to 287 °C	–
CN(C(=O)Cc1ccc(C(F)(F)F)cc1NCC(=O)O)C1CCCCC1N1CCCC1 (centres unmarked) (as salt: HCl)	178 to 180 °C (dec.)	–
COc1ccc(CC(=O)N(C)[C@H](CN2CC[C@H](O)C2)c2ccccc2)cc1NS(C)(=O)=O (as salt: HCl) [Example 127, 2-(3-N-Methylsulfonamido-3-amino-4-methoxyphenyl)-N-methyl-N-[(1S)-1-phenyl-2-[1-(3S)-(3-hydroxypyrrolidinyl)ethyl]]acetamide]	148 to 151 °C	–
